What all share (type): in vivo
For experiment [1], the system named is exon 9 col6a1 morphant zebrafish. The experiment in a line: Spontaneous coiling of exon 9 col6a1 morphant zebrafish embryos. To be noted: 5 and 10 μM in fish water from 21 hpf; read at 24 hpf. As for the experimental part:
(§1) Zebrafish and embryo maintenance. Adult zebrafish were maintained in the facility of the University of Padova containing aerated, 28.5° C.-conditioned saline water according to standard protocols. Fish were kept under a 14 h light-10 h dark cycle. For mating, males and females were separated in the late afternoon, and were freed to start courtship the next morning, which ended with egg deposition and fecundation. Eggs were collected, washed with fish water (0.5 mM NaH2PO4, 0.5 mM NaHPO4, 0.2 mg/L methylene blue, 3 mg/L instant ocean) and embryos were maintained at 28.5° C. All protocols and manipulations with zebrafish were performed as described in C. B. Kimmel, W. W. Ballard, S. R. Kimmel, B. Ullmann, T. F. Schilling, Dev. Dyn. […]
(§2) Motor activity. Spontaneous coiling rates were recorded by observing the number of coiling events in 15 s for single embryos at 24 hpf using light microscopy. Touch-evoked escape response was measured at 48 hpf by observing the ability of larvae to escape after touching the body with a little tip. […]
(§3) Statistical analysis. Differences between control and compound treated samples were determined by one-way ANOVA test with Bonferroni correction using GraphPad Prism (version 5.1 for Windows). […] For FIG. 3, the total number of embryos used is n=35 for each condition; *p<0.05, ***p<0.001, as determined by χ^2 test and oneway ANOVA with Bonferroni correction.

Experiment [2] shares this test system. As to the kind of experiment: Touch-evoked escape response of exon 9 col6a1 morphant zebrafish embryos. To be noted: 5 and 10 μM in fish water from 21 hpf; read at 48 hpf. The protocol:
as §1, §2, §3

Experiment [3] shares this test system. The experiment in a line: Muscle birefringence assay in exon 9 col6a1 morphant zebrafish embryos. The protocol:
as §1, with “C.” for “C. B. Kimmel, W. W. Ballard, S. R. Kimmel, B. Ullmann, T. F. Schilling, Dev. Dyn.”
Birefringence assay. Muscle birefringence was measured at 48 hpf on tricaine-anesthetized embryos by taking advantage of muscle fiber anisotropy. It was measured using two polarizing filters on a Leica M165FC stereomicroscope. Briefly, anesthetized embryos were placed on a glass slide, and muscle light refraction was analyzed by using two polarizing filters. […] Integrated area of birefringence was calculated by using ImageJ software, as disclosed in J. Berger, T. Sztal, P. D. Currie, Biochem. Biophys. […]
Statistical analysis. Differences between control and compound treated samples were determined by one-way ANOVA test with Bonferroni correction using GraphPad Prism (version 5.1 for Windows). […]

Regarding `Cc1c(Cl)cccc1NC(=O)c1cc(-c2ccc(F)c(O)c2)on1` [compound 60, N-(3-Chloro-2-methylphenyl)-5-(4-fluoro-3-hydroxyphenyl)isoxazole-3-carboxamide], the “motor function: spontaneous coiling events (FIG. 1)” value in experiment [1] was “dramatic improvement in motor function”. For the same molecule, in experiment [2], the “motor function: touch-evoked response (FIG. 2)” value is recorded as “dramatic improvement in motor function”. In addition, the “muscle defects by muscle birefringence (FIG. 3)” value in experiment [3] (5 and 10 μM in fish water from 21 hpf, read at 48 hpf) is reported as “largely ameliorated”. Also, the total birefringence scores result in experiment [3] (48 hpf, ANOVA, p<0.05) is “significant recovery of muscle defects”.
